Reference: EP3431490B1, “CHEMICAL COMPOUNDS FOR USE AS DIAGNOSTIC MARKERS OF INFLAMMATION AND NEOPLAMS, THE METHOD FOR SYNTHESIS OF THE CHEMICAL COMPOUNDS, DIAGNOSTIC KIT FOR USE IN DIAGNOSIS OF INFLAMMATORY PROCESSES AND EPITHELIAL NEOPLASMS AND IN VITRO DIAGNOSTIC METHOD OF INFLAMMATORY PROCESSES AND EPITHELIAL NEOPLASMS” (Uniwersytet Gdanski, priority 2017, dated 2019)

System: proteolytic enzymes in combined urine samples of patients (urothelial epithelial neoplasms)
Test: Effect of protease inhibitors on hydrolysis of ABZ-Leu-Glu-Pro-Val-ANB-NH2 in combined urine samples of patients
Assay type: biochemical, human
Settings: inhibitor concentrations as in Table 1; fig. 3
Method: Proteolytic activity is dependent on the presence of specific compounds called inhibitors (proteolytic enzymes). Their incubation with a given biological material allows us to pre-determine the class of enzymes present in the tested samples. For this purpose, we have added effective inhibitory concentrations of certain classes of proteolytic enzymes to the combined urine samples of the ill persons - patients (urothelial epithelial neoplasms, in particular tumor).

inhibition of hydrolysis of ABZ-Leu-Glu-Pro-Val-ANB-NH2: complete inhibition of hydrolysis
Substance: AHX-VYDnV^P(C4H2Cl)2
